Reference: the NIST ThermoML archive (doi:10.1021/je200575c)
± gives the expanded uncertainty stated by the source.

Conditions: Liquid, Vibrating tube method

CCCCCCCCCCCCCC [tetradecane]
Conditions	mass density [kg/m3]
323.2 K, 1050 kPa	737 ± 2
323.2 K, 2020 kPa	742 ± 2
323.2 K, 3160 kPa	743 ± 2
323.2 K, 4070 kPa	744 ± 2
323.2 K, 5060 kPa	745 ± 2
323.3 K, 5940 kPa	745 ± 2
373.4 K, 2080 kPa	707 ± 2
373.4 K, 4050 kPa	709 ± 2
373.4 K, 6010 kPa	710 ± 2
373.4 K, 7070 kPa	711 ± 2
373.5 K, 2970 kPa	708 ± 2
373.5 K, 5010 kPa	710 ± 2
373.6 K, 1010 kPa	706 ± 2
422.5 K, 1080 kPa	672 ± 2
422.5 K, 2140 kPa	673 ± 2
422.6 K, 3020 kPa	675 ± 2
422.6 K, 4020 kPa	676 ± 2
422.6 K, 5040 kPa	677 ± 2
422.6 K, 6050 kPa	679 ± 2
422.7 K, 7000 kPa	680 ± 2
422.7 K, 8000 kPa	681 ± 2
